We go through one compound from patent US9416181B2, “Compositions for cell culture and methods of using the same” (AbbVie Inc., priority 2013, dated 2016).

Entries after “also recorded” stand apart in the source; their conditions may differ.

Common to all, as to type: cell-based, Chinese Hamster
Data set [1] concerns Cell Line 1 (CHO) expressing Antibody 1. Put plainly: Cell culture performance (cell growth, viability, titer), Cell Line 1 3 L bioreactor fed-batch culture. On the procedure:
A recombinant Chinese Hamster Ovary (CHO) cell line (Cell Line 1) expressing a humanized monoclonal antibody (Antibody 1) was evaluated in 2 different cultures vessels (shaker flasks and 3 L laboratory-scale bioreactors). The cell line was of CHO DUX-B11 origin based on a DHFR (dihydrofolate reductase) expression system and cultured in a chemically defined basal media, and fed periodically with a chemically-defined feed media (CDFM). The media utilized throughout all of the experiments were chemically-defined, and both animal-component free, and protein-free. Each of the respective media were supplemented as needed with selected bioflavonoids to evaluate for their potential impact on the resulting acidic species profile. In preparation of the cultures, the cell lines were serially expanded through separate seed train inoculums to generate enough cells for inoculation. Process conditions utilized during the cultures were slightly different depending on the culture scale, but similar within each scale to the respective non-bioflavonoid supplemented control conditions. All bioflavonoids utilized were purchased from Sigma-Aldrich (St. Louis, Mo.).
Viable cell density (VCD) and cell viability values were measured through trypan blue exclusion via Cedex automated cell counters (Roche Applied Science, Indianapolis, Ind.), glucose and lactate values were measured with a ABL-805 (Radiometer Medical, Denmark) blood gas analyzer. Offline pH, dissolved oxygen (DO), and pCO2 measurements were performed as needed with an ABL-805 (Radiometer Medical, Denmark) blood gas analyzer. Osmolality was measured as needed on a Multi-Osmette 2430 osmometer (Precision Systems, Natick, Mass.).
Antibody titers were measured from crude cell culture harvests on a Poros A™ (Life Technologies, Carlsbad, Calif.) affinity column using an HPLC system operating with a low pH, step elution gradient with detection at 280 nm. Absolute concentrations were assigned with respect to reference standard calibration curves.
In the next experiment, lab-scale bioreactors were used to (1) confirm the shaker experiment results and (2) to determine whether higher concentration range of EGCG is suitable for supplementing into cell culture. EGCG was added to the feed of the batch culture at the concentrations of 20 mg/L (mid), 50 mg/L (high) and 125 mg/L (high+) and 250 mg/L (high++) in this reactor experiment.
Cell Line 1 was evaluated in larger-scale feed batch cultures with the feed media supplemented with various bioflavonoids. […] By contrast, cell growth performance was slightly different for the 0.1 g/L EGCG supplemented condition. […] However, the cell viability remained high at 0.1 g/L EGCG. All cultures were successfully harvested on Day 15 post-inoculation. The harvest titers measured from the evaluated cultures were similar.
Cell Line 1 was also evaluated in laboratory-scale fedbatch cultures with the feed media supplemented with various bioflavonoids. […] Cell growth performance was slightly different however with the 0.1 g/L EGCG supplemented condition. […] All cultures were able to be successfully harvested on Day 15 post-inoculation.

For data set [2], the system named is Cell Line 2 (CHO) expressing Antibody 2. Put plainly: Acidic species variants (WCX-10) of Antibody 2, Cell Line 2 lab-scale bioreactor culture. As to conditions: 0.1 g/L. On the procedure: (§1) Four different recombinant Chinese Hamster Ovary (CHO) cell lines expressing four different recombinant glycoproteins were evaluated in either shaker flask culture, or 3 L laboratory scale bioreactors. Cell Line 1 was genetically engineered to express Antibody 1, Cell Line 2 was genetically engineered to express Antibody 2, Cell Line 3 was genetically engineered to express dual variable domain immunoglobulin 1 (DVD1) and Cell Line 4 was genetically engineered to express dual variable domain immunoglobulin 2 (DVD2).
Charge Heterogeneity via Weak Cation Exchange Chromatography-Samples were analyzed using an HPLC system equipped with a ProPac WCX-10 analytical column (Thermo Scientific, Sunnyvale, Calif.). Approximately 100 μg of sample was loaded in 6% Buffer B (10 mM sodium phosphate, 500 mM NaCl, pH 5.5) and 94% Buffer A (10 mM sodium phosphate, pH 7.5). The column was run at a flow rate of 1.0 mL/min. The protein was eluted from the column by increasing the buffer B composition from 6% to 16% over 20 minutes. The protein peaks were measured using UV absorbance at 280 nm as the peaks eluted from the column. The column was regenerated using 100% buffer B followed be a re-equilibration period using initial condition before the injection of the next sample. […]

Data set [3] has the same test system. Kind of data set: Cell culture performance, Cell Line 2 lab-scale bioreactor culture. As to conditions: 0.1 g/L in 100% feed and equivalent in 50% feed. On the procedure: as §1
Viable cell density (VCD) and cell viability values were measured through trypan blue exclusion via Cedex automated cell counters (Roche Applied Science, Indianapolis, Ind.), glucose and lactate values were measured with a ABL-805 (Radiometer Medical, Denmark) blood gas analyzer. Offline pH, dissolved oxygen (DO), and pCO2 (Dissolved carbon dioxide) measurements were performed as needed with an ABL-805 (Radiometer Medical, Denmark) blood gas analyzer. Osmolality was measured as needed on a Multi-Osmette 2430 osmometer (Precision Systems, Natick, Mass.).
(§2) Protein A Affinity Chromatography-Antibody titers were measured from crude cell culture harvests on a Poros ATM (Life Technologies, Carlsbad, Calif.) affinity column using an HPLC system operating with a low pH, step elution gradient with detection at 280 nm. […]

Data set [4] has the same test system. Put plainly: Cell culture performance, Cell Line 2 shake flask culture. As to conditions: shaker. On the procedure:
as §1
DVD1 and DVD2 were immunoglobulins with two variable domains as documented previously. See Wu et al. (2007). Antibody 1 and Antibody 2 were both IgG1 glycoproteins. All four cell lines were of CHO DUX-B11 origin based on a dhfr (dihydrofolate reductase) expression system and cultured in chemically defined basal medias (CDBM), and fed periodically with chemically-defined feed media (CDFM). All media utilized throughout all of the experiments were chemically-defined, free of animal-component, and protein-free. […]
Viable cell density (VCD) and cell viability values were measured through trypan blue exclusion via Cedex automated cell counters (Roche Applied Science, Indianapolis, Ind.), glucose and lactate values were measured with a ABL-805 (Radiometer Medical, Denmark) blood gas analyzer. […] Osmolality was measured as needed on a Multi-Osmette 2430 osmometer (Precision Systems, Natick, Mass.).
as §2
To further evaluate the impact of EGCG on acidic region variants, Antibody 2 and dual variable domain immunoglobulin 1 (DVD1) were examined. Antibody 2 was evaluated in a set of shaker and lab-scale bioreactor experiments with two feed amounts (100% and 50%) as unsupplemented control conditions. […]

`O=C(O[C@@H]1Cc2c(O)cc(O)cc2O[C@@H]1c1cc(O)c(O)c(O)c1)c1cc(O)c(O)c(O)c1` [EGCG, epigallocatechin gallate]: the “peak viable cell density” value in data set [1] (0.05 g/L in CDFM, bioreactor, Day 8) was “approximately 12×10^6 cells/mL”. For the same compound, the “harvest titer vs control” value in data set [1] (0.05 g/L in CDFM, bioreactor, Day 15 harvest) is reported as “outperforming the control condition by a nominal amount; also recorded: outperformed the control condition by a nominal amount”. In data set [1] (0.1 g/L in CDFM, bioreactor), the “cell growth profile vs unsupplemented control” value is given as “lower than the unsupplemented control culture”. Further, the cell viability result in data set [1] (0.1 g/L in CDFM, bioreactor) is given as “remained high”. In addition, in data set [1] (250 mg/L in feed, bioreactor), the “impact on cell culture performance” value was “reduction in early cell culture viability and titer reduction”. The “impact on cell culture performance (cell growth, viability, titer)” value was “no impact on cell culture performance” in data set [1] (20, 50 and 125 mg/L in 1.5×JCL5 feed media, bioreactor); “negligible impact on cell culture performance” in data set [3]; “no negative impact on cell culture performance” in data set [4] (0.05 and 0.1 g/L in feed). The “concentration (turning point) at which peak viable cell density began to drop lower than unsupplemented control” value in data set [1] (Cell Line 1) was found to be 125 µg/mL. In data set [2], the “relative reduction of total acidic variants content vs unsupplemented control” value is 29%-36%. In addition, the “fold of the average titer of the unsupplemented control conditions” value in data set [4] (0.1 g/L in 100% feed) is 1.22 fold; in data set [4] (equivalent of 0.1 g/L in 50% feed) it was 1.11 fold.
